Literature values, collected in US9198859B2, “Concentrated mast cell stabilizing pharmaceutical formulations” (PARI Pharma GMBH, priority 2009, dated 2015).

Assays:
[1] = 6 months; nebulized 3 times daily IsoCrom (20 mg/2 ml) via eFlow; children
[2] = tested on: respiratory syncytial virus; settings: mice
influenza virus = settings: mice

SMILES: O=C(O)c1cc(=O)c2c(OCC(O)COc3cccc4oc(C(=O)O)cc(=O)c34)cccc2o1 [DSCG, disodium cromoglycate]
- therapeutic efficacy versus inhaled steroids [1]: as effective as inhaled steroids
- protection against RSV induced illness [2]: protected against respiratory syncytial virus induced illness
- protection from death induced by influenza virus infection (influenza virus): protected mice from death
